Source: patent publication US11154544B2, “Amide derivatives as Nav1.7 and Nav1.8 blockers” (RaQualia Pharma Inc., priority 2017, dated 2021)
Values joined by “and” are separate entries in the source; they are usually repeats but may differ in a detail not shown here. Equal entries are not always repeated. Where two headings read alike, the source gives them in different places.

What was measured:
Format in all cases: cell-based
[1] = target: human Nav1.5 channels (Homo sapiens (Human), UniProt Q14524); test: FRET assay (FDSS); details: HEK293 cells expressing human Nav1.5, read-out: activity (IC50) against Nav1.5
Experimental: (§1) This screen is used to determine the effects of compounds on human Nav1.8, and human Nav1.5 channels, utilizing the cell imaging technology by Hamamatsu Photonics's Functional Drug Screening System (FDSS). The changes of membrane potential are monitored with fluorescent membrane potential dye pair, DiSBAC2(3) and CC2-DMPE, using FRET technology.
(§2) HEK293 cells expressing human Nav1.8 channels or human Nav1.5 channels are grown in T225 flasks, in a 5% CO2 humidified incubator to about 80% confluence. Media composition of HEK293 cells expressing human Nav1.8 channels consists of Dulbecco's Modified Eagle Medium (high glucose), 10% fetal calf serum (FCS), 100 units/mL Penicillin, 100 microgram/mL Streptomycin, 200 microgram/mL Zeocin and 500 microgram/mL Geneticine. HEK293 cells expressing human Nav1.5 channels are maintained in Dulbecco's Modified Eagle Medium (high glucose) supplemented with 10% fetal calf serum (FCS), 100 units/mL Penicillin, 100 microgram/mL Streptomycin and 500 microgram/mL Geneticine.
(§3) Seed each cell lines (1.5×10^4 cells/well) into 384-well plates prior to experimentation.
(§4) Incubate at 37° C. in 5% CO2 for 24 hours.
(§5) Wash each well with buffer #1 (140 mM NaCl, 4.5 mM KCl, 10 mM D-Glucose, 2 mM CaCl2, 1 mM MgCl2, 10 mM HEPES, pH 7.4 adjusted with. NaOH) twice using plate washer.
(§6) Add 1st loading solution containing 7.5 microM CC2-DMPE and 0.06% Pluronic F-127 in buffer #1.
(§7) Incubate the plate at rt in dark for 0.5 hours.
(§8) Wash each well with buffer #2 (160 mM Choline, 10 mM D-Glucose, 0.1 mM CaCl2, 1 mM MgCl2, 1.0 mM HEPES, pH 7.4 adjusted with KOH) twice using plate washer.
(§9) Add 2nd loading solution containing 75 microM DiSBAC2(3), 2.5 mM Xylene Fast Yellow, 10 microM Deltamethrin or 100 microM veratridine and 0.02% Pluronic F-127 in buffer #2.
(§10) Add compound solutions into the assay plate and leave the plate for 30 minutes under the dark at rt.
(§11) Monitor the fluorescent membrane potentials before and after the addition of buffer #2 by FDSS.
(§12) The data is analyzed and reported as normalized ratios of intensities measured in the 465 nm and 575 nm channels. The process of calculating these ratios is performed as follows: FR=(FI465Max/FI575Min)−(FI465B/FI575B) [Math.2]
(§13) “FI465B”=the mean of fluorescence intensity as baseline (before Na^+ ligand addition) at 465 nm
(§14) “FI575B”=the mean of fluorescence intensity as baseline (before Na^+ ligand addition) at 575 nm
(§15) “FI465Max”=maximum fluorescence intensity at 465 nm after Na^+ stimulation
(§16) “FI575Min”=minimum fluorescence intensity at 575 nm after Na^+ stimulation
(§17) This analysis is performed using a computerized specific program designed for FDSS generated data. Fluorescence ratio values are plotted using XLfit to determine an IC50 value for each compound.

[2] = target: human Nav1.8 channels (Homo sapiens (Human), UniProt Q9Y5Y9); test: FRET assay (FDSS)
Experimental: as §1, §2, §3, §4, §5, §6, §7, §8, §9, §10, §11, §12, §13, §14, §15, §16, §17

[3] = target: T1, Nav1.7 (Homo sapiens (Human), UniProt Q15858); test: EFS-FRET assay
Experimental: This screen is used to determine the effects of compounds on human Nav1.7 channels, utilizing electrical field stimulation (EFS) system in 96-well plate format on FDSS (Hamamatsu Photonics) platform. The change of membrane potential is monitored with FRET dye pair, DiSBAC2(3) and PTS 18.
CHO (Chinese hamster ovary) cells expressing human Nav1.7 channels are grown in T225 flasks, in a 5% CO2 humidified incubator to about 80% confluence. Media composition consists of HAM/F^.12 with Glutamax I, 10% FCS, 100 units/mL penicillin and 100 microgram/mL hygromycin.
Seed each cell lines (1×10^5 cells/well) into 96-well plates prior to experimentation.
Incubate at 37° C. in 5% CO2, for 24 hours.
Wash each well with assay buffer (140 mM NaCl, […], 10 mM D-Glucose, 2 mM CaCl2, 1 mM MgCl2, 10 mM HEPES, pH 7.4 adjusted with NaOH) twice.
Add 1st loading solution containing 10 microM PTS18 and 0.06% Pluronic F-127 in assay buffer.
Incubate the plate at rt in dark for 1 hour. • Remove 1st loading solution and add 2nd loading solution containing 12.5 microM DiSBAC2(3), 1.25 mM Xylene Fast Yellow and 0.0075% Pluronic F-127 in assay buffer. • Place the plate under the dark at rt for 25 minutes. • Add compound solutions into the assay plate. • Set the assay plate in FDSS and place an EFS device on the plate. • Measure EFS-induced fluorescent response by FDSS.
The data are analyzed and reported as normalized ratios of intensities measured at […]. The process of calculating these ratios is performed as follows:
This analysis is performed using a computerized specific program designed for
FDSS generated data. Fluorescence ratio values are plotted using XLfit to determine an IC50 value for each, compound.

[4] = target: T1, Nav1.7; test: Electrophysiology assay, whole cell patch clamp, affinity to inactivated state; details: read-out: activities (Ki) against Nav1.7
Experimental: Whole cell patch clamp recording is used to assess the efficacy or selectivity of Na channel blocker on human voltage gated sodium channels. Na channel expressing cells are dissociated by 0.05% Trypsine-EDTA or Accutase, and then seeded on cover glass for 2-24 hrs.
Manual patch clamp recordings are conducted at rt using the voltage-clamp amplifier (Axon Instruments or HEKA electronik). Electrodes are pulled with P-97 electrode puller (Sutter Instrument). The electrode resistances are 1-3 MOhm when intracellular solution is filled. Currents are lowpass filtered between 2-5 kHz and digitally sampled at 10 kHz.
The extracellular and intercellular solutions for human Nav1.7 and Nav1.5 consist of the following composition: […]
The normalized steady-state inactivation curve is constructed using 2 sec (for vehicle) or 60 sec (for drugs) conditioning pulse to different potentials followed immediately by the test pulse to −10 mV. […] The affinity of test compound to resting state of Na channels (Kresting or Kr) is assessed by depolarizing test pulse from a negative holding potential of −130 mV, where virtually all channels are in the resting state. Kr value is calculated by a conventional 1:1 binding model: Kresting(Kr)={[drug]Imax,drug/(Imax, control−Imax, drug)} [Math.8] • where Kresting (=Kr) is a dissociation constant for the resting state and [drug] is compound concentration. […]

[5] = EFS-FRET, CHO cells expressing human Nav1.7, read-out: IC50 against Nav1.7
[6] = Table 1, read-out: Nav1.7 activity (IC50)

human Nav1.8 channels, sequence (Q9Y5Y9 whole entry): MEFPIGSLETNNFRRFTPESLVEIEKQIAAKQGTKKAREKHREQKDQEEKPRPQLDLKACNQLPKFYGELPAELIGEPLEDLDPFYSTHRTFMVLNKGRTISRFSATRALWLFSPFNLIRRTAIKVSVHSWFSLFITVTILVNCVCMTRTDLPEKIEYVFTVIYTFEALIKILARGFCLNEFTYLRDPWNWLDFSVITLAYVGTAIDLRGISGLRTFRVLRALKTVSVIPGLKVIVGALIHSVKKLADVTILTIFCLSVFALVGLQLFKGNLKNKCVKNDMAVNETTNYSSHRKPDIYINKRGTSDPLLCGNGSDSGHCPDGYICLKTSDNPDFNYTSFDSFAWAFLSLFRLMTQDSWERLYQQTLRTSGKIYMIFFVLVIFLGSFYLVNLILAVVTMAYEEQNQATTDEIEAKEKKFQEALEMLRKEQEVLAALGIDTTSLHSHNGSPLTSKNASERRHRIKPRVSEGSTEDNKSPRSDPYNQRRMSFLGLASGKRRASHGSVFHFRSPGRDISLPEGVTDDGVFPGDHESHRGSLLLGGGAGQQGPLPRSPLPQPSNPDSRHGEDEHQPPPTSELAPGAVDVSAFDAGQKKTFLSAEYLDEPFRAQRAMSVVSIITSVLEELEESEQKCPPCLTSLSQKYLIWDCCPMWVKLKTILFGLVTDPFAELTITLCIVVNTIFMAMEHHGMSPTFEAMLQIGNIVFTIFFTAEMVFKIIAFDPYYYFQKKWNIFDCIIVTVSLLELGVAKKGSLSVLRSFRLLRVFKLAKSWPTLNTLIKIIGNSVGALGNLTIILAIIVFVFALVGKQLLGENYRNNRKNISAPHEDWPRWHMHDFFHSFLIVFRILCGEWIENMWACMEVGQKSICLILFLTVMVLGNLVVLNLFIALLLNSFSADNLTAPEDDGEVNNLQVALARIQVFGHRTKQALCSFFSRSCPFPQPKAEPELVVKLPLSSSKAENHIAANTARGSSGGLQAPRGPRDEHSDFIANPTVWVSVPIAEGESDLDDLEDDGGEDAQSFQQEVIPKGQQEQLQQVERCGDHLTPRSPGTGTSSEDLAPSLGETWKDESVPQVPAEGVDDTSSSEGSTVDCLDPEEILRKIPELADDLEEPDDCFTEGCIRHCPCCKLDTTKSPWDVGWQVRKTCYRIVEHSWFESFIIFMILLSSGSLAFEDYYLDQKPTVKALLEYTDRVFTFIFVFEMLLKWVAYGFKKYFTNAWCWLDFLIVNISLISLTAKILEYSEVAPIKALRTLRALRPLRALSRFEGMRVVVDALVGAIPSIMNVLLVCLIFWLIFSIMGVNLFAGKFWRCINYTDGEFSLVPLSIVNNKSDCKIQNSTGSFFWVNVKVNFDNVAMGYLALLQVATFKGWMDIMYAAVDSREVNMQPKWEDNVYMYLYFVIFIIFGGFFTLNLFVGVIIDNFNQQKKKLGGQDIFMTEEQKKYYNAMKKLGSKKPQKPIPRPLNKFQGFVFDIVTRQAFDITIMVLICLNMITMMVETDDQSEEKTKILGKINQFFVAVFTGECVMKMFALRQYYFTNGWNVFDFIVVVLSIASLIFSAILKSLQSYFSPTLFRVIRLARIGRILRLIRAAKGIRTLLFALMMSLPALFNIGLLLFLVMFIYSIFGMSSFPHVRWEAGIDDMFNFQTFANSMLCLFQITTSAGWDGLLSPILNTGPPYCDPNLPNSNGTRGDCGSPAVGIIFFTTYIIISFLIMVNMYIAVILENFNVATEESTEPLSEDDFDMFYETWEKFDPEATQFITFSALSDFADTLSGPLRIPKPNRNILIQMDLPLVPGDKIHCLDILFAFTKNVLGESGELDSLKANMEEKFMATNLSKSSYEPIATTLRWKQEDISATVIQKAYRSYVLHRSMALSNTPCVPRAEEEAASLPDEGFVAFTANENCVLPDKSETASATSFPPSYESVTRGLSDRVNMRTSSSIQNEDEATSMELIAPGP
T1 sequence (Q15858 whole entry): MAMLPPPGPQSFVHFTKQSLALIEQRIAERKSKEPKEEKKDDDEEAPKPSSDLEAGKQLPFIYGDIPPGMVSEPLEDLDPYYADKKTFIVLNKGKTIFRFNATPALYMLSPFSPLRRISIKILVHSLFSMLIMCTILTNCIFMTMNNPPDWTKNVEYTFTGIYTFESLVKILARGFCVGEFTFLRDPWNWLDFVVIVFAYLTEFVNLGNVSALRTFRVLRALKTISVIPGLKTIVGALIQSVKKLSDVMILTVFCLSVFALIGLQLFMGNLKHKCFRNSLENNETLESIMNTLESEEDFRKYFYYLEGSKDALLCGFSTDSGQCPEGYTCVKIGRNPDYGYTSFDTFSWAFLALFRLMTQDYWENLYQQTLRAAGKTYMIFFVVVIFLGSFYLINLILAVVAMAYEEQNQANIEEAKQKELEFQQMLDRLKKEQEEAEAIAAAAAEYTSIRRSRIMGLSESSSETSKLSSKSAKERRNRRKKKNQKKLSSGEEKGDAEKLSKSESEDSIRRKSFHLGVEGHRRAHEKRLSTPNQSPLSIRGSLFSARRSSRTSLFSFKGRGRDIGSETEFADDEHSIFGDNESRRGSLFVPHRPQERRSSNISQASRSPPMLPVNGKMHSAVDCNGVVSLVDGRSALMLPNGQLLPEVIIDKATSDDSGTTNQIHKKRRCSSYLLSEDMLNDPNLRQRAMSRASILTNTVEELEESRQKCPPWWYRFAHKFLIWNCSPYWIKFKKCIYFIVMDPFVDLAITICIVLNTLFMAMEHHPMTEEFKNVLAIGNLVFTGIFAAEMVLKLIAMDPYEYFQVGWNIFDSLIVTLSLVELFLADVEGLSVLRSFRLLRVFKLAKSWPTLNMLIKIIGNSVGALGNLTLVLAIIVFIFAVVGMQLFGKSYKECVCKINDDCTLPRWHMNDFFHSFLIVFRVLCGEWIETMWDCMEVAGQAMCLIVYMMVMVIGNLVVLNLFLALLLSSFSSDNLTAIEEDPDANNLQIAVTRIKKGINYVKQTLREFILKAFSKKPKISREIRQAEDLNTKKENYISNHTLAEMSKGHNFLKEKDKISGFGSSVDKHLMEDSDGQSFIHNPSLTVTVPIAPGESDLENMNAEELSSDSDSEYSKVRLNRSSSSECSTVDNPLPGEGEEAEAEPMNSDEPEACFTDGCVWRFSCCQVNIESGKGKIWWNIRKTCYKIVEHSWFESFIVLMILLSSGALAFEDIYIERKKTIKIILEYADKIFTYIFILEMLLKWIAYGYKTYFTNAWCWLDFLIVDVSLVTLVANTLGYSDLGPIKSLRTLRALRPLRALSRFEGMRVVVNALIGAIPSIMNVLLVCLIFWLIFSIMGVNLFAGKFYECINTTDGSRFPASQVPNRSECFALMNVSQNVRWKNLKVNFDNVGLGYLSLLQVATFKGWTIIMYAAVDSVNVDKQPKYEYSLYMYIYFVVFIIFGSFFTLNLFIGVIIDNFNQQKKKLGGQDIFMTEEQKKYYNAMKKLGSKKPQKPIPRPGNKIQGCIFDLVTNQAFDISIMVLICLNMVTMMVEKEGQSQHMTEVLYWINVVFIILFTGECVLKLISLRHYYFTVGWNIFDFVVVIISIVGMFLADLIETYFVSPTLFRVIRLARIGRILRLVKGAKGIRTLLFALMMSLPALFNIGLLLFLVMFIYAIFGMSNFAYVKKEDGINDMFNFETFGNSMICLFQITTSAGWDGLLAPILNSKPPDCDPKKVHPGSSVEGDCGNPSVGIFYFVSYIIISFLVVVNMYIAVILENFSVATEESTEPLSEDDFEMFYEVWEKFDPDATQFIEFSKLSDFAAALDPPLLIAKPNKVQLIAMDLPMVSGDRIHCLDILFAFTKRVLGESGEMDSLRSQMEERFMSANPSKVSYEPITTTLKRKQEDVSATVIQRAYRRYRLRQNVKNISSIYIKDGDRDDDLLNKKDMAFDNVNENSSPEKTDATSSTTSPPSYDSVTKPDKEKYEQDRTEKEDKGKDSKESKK

`CC(CNC(=O)c1ccnc(NC(=O)C2CC2)c1)Oc1ccc(C(F)(F)F)cc1` (centres unmarked) [Example 1, 2-(cyclopropanecarboxamido)-N-(2-(4-(trifluoromethyl)phenoxy)propyl)isonicotinamide] was tested, and the IC50 [1] was > 30000 nM and the IC50 ([2]; FRET, HEK293 cells expressing human Nav1.8, read-out: IC50 against Nav1.8) was 650 nM.

With `CCC(=O)Nc1cc(C(=O)NCCNc2ncc(C(F)(F)F)cc2Cl)ccn1` [Example 3] the IC50 [3, 5] was < 500 nM and the Ki [4] was 960 nM.

`CC(=O)Nc1cc(C(=O)NCCNc2ncc(C(F)(F)F)cc2Cl)cc(C)n1` [Example 4] was tested, and the IC50 [3, 5] was < 500 nM and the Ki [4] was 520 nM.

For `CC(C)C(=O)Nc1cc(C(=O)NCCOc2ncc(C(F)(F)F)cc2Cl)ccn1` [Example 13], the IC50 [3, 5] was 370 nM and < 500 nM, the IC50 [3, 6] was 370 nM and the “activity against Nav1.8” value [2] was “good activity”.

With `Cc1cc(C(=O)NCCOc2ncc(C(F)(F)F)cc2Cl)cc(NC(=O)C(C)C)n1` [Example 35] the IC50 [3, 5] was 190 nM and < 500 nM, the IC50 [3, 6] was 190 nM and the “activity against Nav1.8” value [2] was “good activity”.

With `CCC(=O)Nc1cc(C(=O)NCCOc2ccc(C(F)(F)F)cc2OC)ccn1` [Example 127] the IC50 [3, 5] was < 500 nM.

In the case of `COc1cc(C(F)(F)F)ccc1OCCNC(=O)c1cc(C)nc(NC(C)=O)c1` [Example 128], the IC50 [3, 5] is reported as < 500 nM.

With `CCC(=O)Nc1cc(C(=O)NCCOc2ccc(C(F)(F)F)cc2OC)cc(C)n1` [Example 129] the IC50 [3, 5] was < 500 nM.

With `COc1cc(C(F)(F)F)ccc1OCCNC(=O)c1ccnc(NC(=O)C2CC2)c1` [Example 130] the IC50 [3, 5] was < 500 nM.

With `COc1cc(C(F)(F)F)ccc1OCCNC(=O)c1ccnc(NC(=O)C(C)C)c1` [Example 131] the IC50 [3, 5] was < 500 nM.

For `COc1cc(C(F)(F)F)ccc1OCCNC(=O)c1cc(C)nc(NC(=O)C2CC2)c1` [Example 132], the IC50 [3, 5] was < 500 nM.

With `COc1cc(C(F)(F)F)ccc1OCCNC(=O)c1cc(C)nc(NC(=O)C(C)C)c1` [Example 133] the IC50 [3, 5] was < 500 nM.

In the case of `COc1cc(C(F)(F)F)ccc1OCCNC(=O)c1ccnc(NC(=O)C2CC2)n1` [Example 134], the IC50 [3, 5] is reported as < 500 nM.

`CC(=O)Nc1cc(C(=O)NCCOc2ccc(C(F)(F)F)cc2C)ccn1` [Example 138] was tested, and the IC50 [3, 5] was < 500 nM.

For `CCC(=O)Nc1cc(C(=O)NCCOc2ccc(C(F)(F)F)cc2C)ccn1` [Example 139], the IC50 [3, 5] was < 500 nM.

With `CC(=O)Nc1cc(C(=O)NCCOc2ccc(C(F)(F)F)cc2C)cc(C)n1` [Example 140] the IC50 [3, 5] was < 500 nM.

For `CCC(=O)Nc1cc(C(=O)NCCOc2ccc(C(F)(F)F)cc2C)cc(C)n1` [Example 141], the IC50 [3, 5] was < 500 nM.

In the case of `Cc1cc(C(F)(F)F)ccc1OCCNC(=O)c1ccnc(NC(=O)C2CC2)c1` [Example 142], the IC50 [3, 5] is reported as < 500 nM.

With `Cc1cc(C(F)(F)F)ccc1OCCNC(=O)c1ccnc(NC(=O)C(C)C)c1` [Example 143] the IC50 [3, 5] was < 500 nM.

With `Cc1cc(C(=O)NCCOc2ccc(C(F)(F)F)cc2C)cc(NC(=O)C(C)C)n1` [Example 145] the IC50 [3, 5] was < 500 nM.

For `Cc1cc(C(F)(F)F)ccc1OCCNC(=O)c1ccnc(NC(=O)C2CC2)n1` [Example 146], the IC50 [3, 5] was < 500 nM.

With `CCC(=O)Nc1cc(C(=O)NCCOc2ccc(OC(F)(F)F)c(F)c2)ccn1` [Example 148] the IC50 [3, 5] was < 500 nM.

For `CC(C)C(=O)Nc1cc(C(=O)NCCOc2ccc(OC(F)(F)F)c(F)c2)ccn1` [Example 149], the IC50 [3, 5] was < 500 nM.

`O=C(NCCOc1ccc(OC(F)(F)F)c(F)c1)c1ccnc(NC(=O)C2CC2)n1` [Example 150] was tested, and the IC50 [3, 5] was < 500 nM.

`O=C(NCCOc1ccc(OC(F)(F)F)c(F)c1)c1ccnc(NC(=O)C2CC2)c1` [Example 151] was tested, and the IC50 [3, 5] was < 500 nM.

For `CC(=O)Nc1cc(C(=O)NCCOc2ccc(OC(F)(F)F)c(F)c2)cc(C)n1` [Example 152], the IC50 [3, 5] was < 500 nM.

For `CC(=O)Nc1cc(C(=O)NCCOc2ccc(OC(F)(F)F)c(F)c2)ccn1` [Example 154], the IC50 [3, 5] was < 500 nM.

With `O=C(NCCOc1ncc(C(F)(F)F)cc1Cl)c1ncccc1Cl` [No. 1-3, reference compound] the IC50 [3, 5] was > 3000 nM and the IC50 [3, 6] was > 3000 nM.

With `O=C(NCCOc1ncc(C(F)(F)F)cc1Cl)c1cccnc1C(F)(F)F` [No. 1-63, reference compound] the IC50 [3, 5] was > 3000 nM and the IC50 [3, 6] was > 3000 nM.
